Reference: patent US20150105252A1, “SUBSTITUTED PYRAZOLES AS HERBICIDES” (E I DU PONT DE NEMOURS AND COMPANY, priority 2013, published 2015)

How the values were obtained:
pigweed [1] = assay: Test A preemergence; assay type: in vivo, Amaranthus retroflexus; details: preemergence; for Pigweed plant response rating (0 to 100 scale): 125 g ai/ha, visual injury approx. 10 days after treatment; for Pigweed plant response rating: 500 g ai/ha, visual injury after approx. 10 days, 0 to 100 scale (0 no effect, 100 complete control)
Summary of the method: (§1)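 Visual injury ratings, 0 = no effect to 100 = complete control, taken about 10 days after treatment against untreated controls. Test chemicals, in a non-phytotoxic surfactant-containing solvent, were sprayed onto soil preemergence or onto one- to two-leaf plants (2–10 cm) postemergence, in loam–sand soil under greenhouse conditions.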

barnyardgrass [2] = assay: Test A preemergence; assay type: in vivo, Echinochloa crus-galli; details: preemergence
Summary of the method: as §1

ducksalad = assay: Test B flood; assay type: in vivo, Heteranthera limosa; details: 250 g ai/ha, visual rating on 0 to 100 scale (0 no effect, 100 complete control), 13 to 15 days
Summary of the method: (§2)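 Flooded-pot test: compound dosed into 3 cm of standing water above soil when plants had two leaves. Visual control ratings (0–100) versus untreated plants after 13–15 d.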

velvetleaf [3] = assay: Test A preemergence; assay type: in vivo, Abutilon theophrasti; details: preemergence; for Velvetleaf plant response rating (0 to 100 scale): 125 g ai/ha, visual injury approx. 10 days after treatment; for Velvetleaf plant response rating: 500 g ai/ha, visual injury after approx. 10 days, 0 to 100 scale (0 no effect, 100 complete control)
Summary of the method: as §1

morningglory [4] = assay: Test A postemergence; assay type: in vivo, Ipomoea spp.
Summary of the method: as §1

barnyardgrass [5] = assay: Test A postemergence; assay type: in vivo, Echinochloa crus-galli
Summary of the method: as §1

wheat [6] = assay: Test A preemergence; assay type: in vivo, Triticum aestivum; details: preemergence; for Wheat plant response rating (0 to 100 scale): 125 g ai/ha, visual injury approx. 10 days after treatment; for Wheat plant response rating: 500 g ai/ha, visual injury after approx. 10 days, 0 to 100 scale (0 no effect, 100 complete control)
Summary of the method: as §1

morningglory [7] = assay: Test A preemergence; assay type: in vivo, Ipomoea spp.; details: preemergence; for Morningglory plant response rating (0 to 100 scale): 125 g ai/ha, visual injury approx. 10 days after treatment; for Morningglory plant response rating: 500 g ai/ha, visual injury after approx. 10 days, 0 to 100 scale (0 no effect, 100 complete control)
Summary of the method: as §1

crabgrass, large [8] = assay: Test A postemergence; assay type: in vivo, Digitaria sanguinalis
Summary of the method: as §1

sedge, umbrella = assay: Test B flood; assay type: in vivo, Cyperus difformis; details: 250 g ai/ha, visual rating on 0 to 100 scale (0 no effect, 100 complete control), 13 to 15 days
Summary of the method: as §2

foxtail, giant [9] = assay: Test A preemergence; assay type: in vivo, Setaria faberii; details: preemergence; for Foxtail, Giant plant response rating (0 to 100 scale): 125 g ai/ha, visual injury approx. 10 days after treatment; for Foxtail, Giant plant response rating: 500 g ai/ha, visual injury after approx. 10 days, 0 to 100 scale (0 no effect, 100 complete control)
Summary of the method: as §1

crabgrass, large [10] = assay: Test A preemergence; assay type: in vivo, Digitaria sanguinalis; details: preemergence; for Crabgrass, Large plant response rating (0 to 100 scale): 125 g ai/ha, visual injury approx. 10 days after treatment; for Crabgrass, Large plant response rating: 500 g ai/ha, visual injury after approx. 10 days, 0 to 100 scale (0 no effect, 100 complete control)
Summary of the method: as §1

rice = assay: Test B flood; assay type: in vivo, Oryza sativa; details: 250 g ai/ha, visual rating on 0 to 100 scale (0 no effect, 100 complete control), 13 to 15 days
Summary of the method: as §2

velvetleaf [11] = assay: Test A postemergence; assay type: in vivo, Abutilon theophrasti
Summary of the method: as §1

pigweed [12] = assay: Test A postemergence; assay type: in vivo, Amaranthus retroflexus
Summary of the method: as §1

barnyardgrass [13] = assay: Test B flood; assay type: in vivo, Echinochloa crus-galli; details: 250 g ai/ha, visual rating on 0 to 100 scale (0 no effect, 100 complete control), 13 to 15 days
Summary of the method: as §2

corn [14] = assay: Test A postemergence; assay type: in vivo, Zea mays
Summary of the method: as §1

wheat [15] = assay: Test A postemergence; assay type: in vivo, Triticum aestivum
Summary of the method: as §1

foxtail, giant [16] = assay: Test A postemergence; assay type: in vivo, Setaria faberii
Summary of the method: as §1

corn [17] = assay: Test A preemergence; assay type: in vivo, Zea mays; details: preemergence; for Corn plant response rating (0 to 100 scale): 125 g ai/ha, visual injury approx. 10 days after treatment; for Corn plant response rating: 500 g ai/ha, visual injury after approx. 10 days, 0 to 100 scale (0 no effect, 100 complete control)
Summary of the method: as §1

[18] = 125 g ai/ha, visual injury, 0 to 100 scale, approx. 10 days
[19] = 500 g ai/ha, visual injury after approx. 10 days, 0 to 100 scale (0 no effect, 100 complete control)
[20] = Postemergence, 500 g ai/ha, 0 to 100 scale (0 no effect, 100 complete control)
[21] = postemergence, 125 g ai/ha, about 10 days, visual rating on 0 to 100 scale (0 no effect, 100 complete control)

Row | Compound | Pigweed plant response rating (0 to 100 scale) (pigweed [1]) | Pigweed plant response rating (pigweed [1]) | Barnyardgrass plant response rating (barnyardgrass [2]; [18]) | Barnyardgrass plant response rating (barnyardgrass [2]; [19]) | Plant response rating, Ducksalad (ducksalad) | Velvetleaf plant response rating (0 to 100 scale) (velvetleaf [3]) | Velvetleaf plant response rating (velvetleaf [3]) | Morningglory plant response rating (morningglory [4]; [20]) | Morningglory plant response rating (morningglory [4]; [21]) | Barnyardgrass plant response rating (barnyardgrass [5]; [20]) | Barnyardgrass plant response rating (barnyardgrass [5]; [21]) | Wheat plant response rating (0 to 100 scale) (wheat [6]) | Wheat plant response rating (wheat [6]) | Morningglory plant response rating (0 to 100 scale) (morningglory [7]) | Morningglory plant response rating (morningglory [7]) | Crabgrass, Large plant response rating (crabgrass, large [8]; [20]) | Crabgrass, Large plant response rating (crabgrass, large [8]; [21]) | Plant response rating, Sedge, Umbrella (sedge, umbrella) | Foxtail, Giant plant response rating (0 to 100 scale) (foxtail, giant [9]) | Foxtail, Giant plant response rating (foxtail, giant [9]) | other results
1 | O=C(NC1CC1)c1cc(Br)n(Cc2cccc(C(F)(F)F)c2)n1 [Compound 160] | 50 | 90 | 0 | 10 | 0 | 0 | 10 | 20 | 0 | 30 | 0 | 0 | 0 | 0 | 0 | 40 | 20 | 0 | 0 | 60 | Crabgrass, Large plant response rating (0 to 100 scale) (crabgrass, large [10]): 50; Crabgrass, Large plant response rating (crabgrass, large [10]): 90; Plant response rating, Rice (rice): 0; Velvetleaf plant response rating (velvetleaf [11]; [20]): 60; Velvetleaf plant response rating (velvetleaf [11]; [21]): 30; Pigweed plant response rating (pigweed [12]; [20]): 80; Pigweed plant response rating (pigweed [12]; [21]): 50; Plant response rating, Barnyardgrass (barnyardgrass [13]): 0; Corn plant response rating (corn [14]; [20]): 20; Corn plant response rating (corn [14]; [21]): 0; Wheat plant response rating (wheat [15]; [20]): 0; Wheat plant response rating (wheat [15]; [21]): 0; Foxtail, Giant plant response rating (foxtail, giant [16]; [20]): 30; Foxtail, Giant plant response rating (foxtail, giant [16]; [21]): 20; Corn plant response rating (0 to 100 scale) (corn [17]): 0; Corn plant response rating (corn [17]): 0
2 | CCc1cc(C(=O)NC2CC2)nn1Cc1nc(C(F)(F)F)no1 [Compound 163] | 30 | 100 | 10 | 60 | 0 | 10 | 50 | 90 | 30 | 40 | 10 | 0 | 10 | 0 | 70 | 70 | 20 | 0 | 20 | 70 | Crabgrass, Large plant response rating (0 to 100 scale) (crabgrass, large [10]): 50; Crabgrass, Large plant response rating (crabgrass, large [10]): 100; Plant response rating, Rice (rice): 0; Velvetleaf plant response rating (velvetleaf [11]; [20]): 80; Velvetleaf plant response rating (velvetleaf [11]; [21]): 50; Pigweed plant response rating (pigweed [12]; [20]): 90; Pigweed plant response rating (pigweed [12]; [21]): 50; Plant response rating, Barnyardgrass (barnyardgrass [13]): 0; Corn plant response rating (corn [14]; [20]): 30; Corn plant response rating (corn [14]; [21]): 0; Wheat plant response rating (wheat [15]; [20]): 0; Wheat plant response rating (wheat [15]; [21]): 0; Foxtail, Giant plant response rating (foxtail, giant [16]; [20]): 80; Foxtail, Giant plant response rating (foxtail, giant [16]; [21]): 10; Corn plant response rating (0 to 100 scale) (corn [17]): 0; Corn plant response rating (corn [17]): 0
